Source: patent publication US9273003B2, “Methods of treating lymphoma and rheumatoid arthritis with cyclopentyl (2S)-cyclohexyl[({6-[3-(hydroxyamino)-3-oxopropyl]pyridin-3-yl}methyl)amino]acetate” (GlaxoSmithKline Intellectual Property Development Limited, priority 2006, dated 2016)

Legend:
HUT78 cells = test: HUT cell inhibition assay (WST-1 cell viability); type: cell-based; settings: Homo sapiens; HUT78 cells; IC50 allocated to ranges; read-out: HUT activity
Description: (§1) Cancer cell lines (U937 and HUT) growing in log phase were harvested and seeded at 1000-2000 cells/well (100 μl final volume) into 96-well tissue culture plates. Following 24 h of growth cells were treated with Compound. Plates were then re-incubated for a further 72-96 h before a WST-1 cell viability assay was conducted according to the suppliers (Roche Applied Science) instructions.
(§2) Data were expressed as a percentage inhibition of the control, measured in the absence of inhibitor, as follows: % inhibition=100−[(S^i/S^o)×100] where S^i is the signal in the presence of inhibitor and S^o is the signal in the presence of DMSO.
(§3) Dose response curves were generated from 8 concentrations (top final concentration 10 μM, with 3-fold dilutions), using 6 replicates.
(§4) IC50 values were determined by non-linear regression analysis, after fitting the results to the equation for sigmoidal dose response with variable slope (% activity against log concentration of Compound), using Graphpad Prism software.

[1] = molecular target: histone deacetylase activity (HeLa nuclear extract); test: HDAC fluorescent activity assay (Fluor de Lys, Biomol); type: biochemical; settings: IC50 allocated to ranges, read-out: HDAC activity
Description: The ability of compounds to inhibit histone deacetylase activities was measured using the commercially available HDAC fluorescent activity assay from Biomol. In brief, the Fluor de Lys™ substrate, a lysine with an epsilon-amino acetylation, is incubated with the source of histone deacetylase activity (HeLa nuclear extract) in the presence or absence of inhibitor. Deacetylation of the substrate sensitises the substrate to Fluor de Lys™ developer, which generates a fluorophore. Thus, incubation of the substrate with a source of HDAC activity results in an increase in signal that is diminished in the presence of an HDAC inhibitor.
Data are expressed as a percentage of the control, measured in the absence of inhibitor, with background signal being subtracted from all samples, as follows: % activity=[(S^i−B)/(S^o−B)]×100 where S^i is the signal in the presence of substrate, enzyme and inhibitor, S^o is the signal in the presence of substrate, enzyme and the vehicle in which the inhibitor is dissolved, and B is the background signal measured in the absence of enzyme.
(§5) IC50 values were determined by non-linear regression analysis, after fitting the results of eight data points to the equation for sigmoidal dose response with variable slope (% activity against log concentration of Compound), using Graphpad Prism software.
Histone deacetylase activity from crude nuclear extract derived from HeLa cells was used for screening. The preparation, purchased from 4C (Seneffe, Belgium), was prepared from HeLa cells harvested whilst in exponential growth phase. The nuclear extract was prepared according to the methodology described by J. D. Dignam, Nucl. Acid. Res., 1983, 11, 1475-1489, snap frozen in liquid nitrogen and stored at −80° C. The final buffer composition was 20 mM Hepes, 100 mM KCl, 0.2 mM EDTA, 0.5 mM DTT, 0.2 mM PMSF and 20% (v/v) glycerol.

U937 cells = test: U937 cell inhibition assay (WST-1 cell viability); type: cell-based; settings: Homo sapiens, U-937; U937 cells; IC50 allocated to ranges; read-out: U937 activity
Description: as §1, §2, §3, §4

HeLa cells = test: HeLa cell inhibition assay (sulphorhodamine B cell viability); type: cell-based; settings: Homo sapiens, IC50 allocated to ranges
Description: HeLa cells growing in log phase were harvested and seeded at 1000 cells/well (200 μl final volume) into 96-well tissue culture plates. Following 24 h of cell growth cells were treated with compounds (final concentration of 20 μM). Plates were then re-incubated for a further 72 h before a sulphorhodamine B (SRB) cell viability assay was conducted according to the methodology described by Skehan et al, J. Natl. Canc. Inst., 1990, 82, 1107-1112.
Data were expressed as a percentage inhibition of the control, measured in the absence of inhibitor, as follows:— % inhibition=100−[(S^i/S^o)×100] where S^i is the signal in the presence of inhibitor and S^o is the signal in the presence of DMSO.
as §5

SMILES	IC50 [1] [nM]	IC50 (U937 cells) [nM]	IC50 (HeLa cells) [nM]	IC50 (HUT78 cells) [nM]
O=C(/C=C/c1ccc(CN[C@H](C(=O)OC2Cc3ccccc3C2)C2CCCCC2)cn1)NO [Example 55, 2,3-Dihydro-1H-inden-2-yl (2S)-cyclohexyl[({6-[(1E)-3-(hydroxyamino)-3-oxoprop-1-en-1-yl]pyridin-3-yl}methyl)amino]acetate]	< 100	< 330	331 to 3300	< 330
CC(C)C[C@H](NCc1ccc(CCC(=O)NO)cc1)C(=O)OCCN(C)C [Example 38, 2-(Dimethylamino)ethyl N-{4-[3-(hydroxyamino)-3-oxopropyl]benzyl}-L-leucinate]	101 to 1000	331 to 3300	> 3300	> 3300
CC(C)C[C@H](NS(=O)(=O)c1cccc(/C=C/C(=O)NO)c1)C(=O)OC1CCCC1 [Example 3, Cyclopentyl N-({3-[(1E)-3-(hydroxyamino)-3-oxoprop-1-en-1-yl]phenyl}sulfonyl)-L-leucinate]	< 100	331 to 3300	331 to 3300	331 to 3300
COC(=O)[C@H](Cc1c[nH]c2ccccc12)NCc1ccc(/C=C/C(=O)NO)cc1 [Example 29, Methyl N-{4-[(1E)-3-(hydroxyamino)-3-oxoprop-1-en-1-yl]benzyl}-L-tryptophanate]	–	331 to 3300	331 to 3300	331 to 3300
CC(C)[C@H](NCc1ccc(CCC(=O)NO)cc1)C(=O)OC1CCCC1 [Example 42, Cyclopentyl N-{4-[3-(hydroxyamino)-3-oxopropyl]benzyl}-L-valinate]	> 1000	< 330	–	331 to 3300
CC(C)[C@@H]1CC[C@@H](C)C[C@H]1OC(=O)[C@@H](NCc1ccc(CCC(=O)NO)cc1)C1CCCCC1 [Example 46, (1R,2S,5R)-2-Isopropyl-5-methylcyclohexyl (2S)-cyclohexyl({4-[3-(hydroxyamino)-3-oxopropyl]benzyl}amino)acetate]	> 1000	> 3300	–	> 3300
CC(C)C[C@H](NCc1ccc(CCC(=O)NO)cc1)C(=O)O[C@@H]1C[C@H](C)CC[C@H]1C(C)C [Example 45, (1R,2S,5R)-2-Isopropyl-5-methylcyclohexyl N-{4-[3-(hydroxyamino)-3-oxopropyl]benzyl}-L-leucinate]	> 1000	< 330	–	331 to 3300
CC(C)C[C@H](NCc1ccc(CCC(=O)NO)cc1)C(=O)OC1CCCC1 [Example 34, Cyclopentyl N-{4-[3-(hydroxyamino)-3-oxopropyl]benzyl}-L-leucinate]	101 to 1000	< 330	–	< 330
CC(C)(C)[C@H](NCc1ccc(CCC(=O)NO)cc1)C(=O)OC1CCCC1 [Example 43, Cyclopentyl N-{4-[3-(hydroxyamino)-3-oxopropyl]benzyl}-3-methyl-L-valinate]	> 1000	331 to 3300	–	331 to 3300
O=C(/C=C/c1ccc(CN[C@H](C(=O)OC2CCCC2)C2CCCCC2)cn1)NO [Example 53, Cyclopentyl (2S)-cyclohexyl[({6-[(1E)-3-(hydroxyamino)-3-oxoprop-1-en-1-yl]pyridin-3-yl}methyl)amino]acetate]	< 100	< 330	–	< 330
O=C(CCc1cccc(CN[C@H](C(=O)OC2CCCC2)c2ccccc2)c1)NO [Example 51, Cyclopentyl (2S)-({3-[3-(hydroxyamino)-3-oxopropyl]benzyl}amino)(phenyl)acetate]	> 1000	> 3300	–	> 3300
O=C(/C=C/c1ccc(CN[C@H](C(=O)OC2Cc3ccccc3C2)C2CCCCC2)cc1)NO [Example 23, 2,3-Dihydro-1H-inden-2-yl (2S)-cyclohexyl({4-[(1E)-3-(hydroxyamino)-3-oxoprop-1-en-1-yl]benzyl}amino)acetate]	101 to 1000	< 330	–	331 to 3300
CC(C)C[C@H](NCc1cccc(CCC(=O)NO)c1)C(=O)OC1CCCC1 [Example 52, Cyclopentyl N-{3-[3-(hydroxyamino)-3-oxopropyl]benzyl}-L-leucinate]	> 1000	331 to 3300	–	> 3300
CC[C@H](C)[C@H](NCc1ccc(CCC(=O)NO)cc1)C(=O)OC(C)(C)C [Example 44, tert-Butyl N-{4-[3-(hydroxyamino)-3-oxopropyl]benzyl}isoleucinate]	101 to 1000	331 to 3300	–	331 to 3300

The next lines start with results.

IC50 [1] [nM]	IC50 (U937 cells) [nM]	IC50 (HeLa cells) [nM]	SMILES	IC50 (HUT78 cells) [nM]
101 to 1000	331 to 3300	331 to 3300	O=C(/C=C/c1cccc(CNCc2ccc(CN[C@H](C(=O)OC3CCCC3)C3CCCCC3)cc2)c1)NO [Example 73, Cyclopentyl (2S)-cyclohexyl({4-[({3-[(1E)-3-(hydroxyamino)-3-oxoprop-1-en-1-yl]benzyl}amino)methyl]benzyl}amino)acetate]	331 to 3300
–	< 330	> 3300	CC(C)(C)OC[C@H](NCc1ccc(CNCc2cccc(/C=C/C(=O)NO)c2)cc1)C(=O)OC1CCCC1 [Example 74, Cyclopentyl O-tert-butyl-N-{4-[({3-[(1E)-3-(hydroxyamino)-3-oxoprop-1-en-1-yl]benzyl}amino)methyl]benzyl}-L-serinate]	331 to 3300
> 1000	> 3300	–	CC(N[C@H](C(=O)OC1CCCC1)C1CCCCC1)c1ccc(/C=C/C(=O)NO)cc1 (stereo partly shown) [Example 84]	> 3300
101 to 1000	331 to 3300	–	CC(C)C[C@H](NCCc1ccc(/C=C/C(=O)NO)cc1)C(=O)OC(C)(C)C [Example 87, tert-Butyl N-(2-{4-[(1E)-3-(hydroxyamino)-3-oxoprop-1-en-1-yl]phenyl}ethyl)-L-leucinate]	331 to 3300
101 to 1000	< 330	–	CC(C)C[C@H](NCc1ccc(CNCc2ccc(CCC(=O)NO)cc2)cc1)C(=O)OC(C)(C)C [Example 78, tert-Butyl N-{4-[({4-[3-(hydroxyamino)-3-oxopropyl]benzyl}amino)methyl]benzyl}-L-leucinate]	331 to 3300
101 to 1000	331 to 3300	–	CC(C)C[C@H](NCc1ccc(/C=C/C(=O)NO)cn1)C(=O)OC(C)(C)C [Example 69, tert-Butyl N-({5-[(1E)-3-(hydroxyamino)-3-oxoprop-1-en-1-yl]pyridin-2-yl}methyl)-L-leucinate]	331 to 3300
101 to 1000	< 330	–	O=C(CCc1ccc(CN[C@H](C(=O)OC2CCCC2)c2ccccc2)cn1)NO [Example 65, Cyclopentyl (2S)-[({6-[3-(hydroxyamino)-3-oxopropyl]pyridin-3-yl}methyl)amino](phenyl)acetate]	331 to 3300
< 100	< 330	–	CC(C)(C)OC(=O)[C@@H](NCc1ccc(/C=C/C(=O)NO)nc1)c1ccccc1 [Example 61, tert-Butyl (2S)-[({6-[(1E)-3-(hydroxyamino)-3-oxoprop-1-en-1-yl]pyridin-3-yl}methyl)amino](phenyl)acetate]	< 330
101 to 1000	< 330	–	CC(C)C[C@H](NCc1ccc(CCC(=O)NO)nc1)C(=O)O[C@@H]1C[C@H](C)CC[C@H]1C(C)C [Example 67, (1R,2S,5R)-2-Isopropyl-5-methylcyclohexyl N-({6-[3-(hydroxyamino)-3-oxopropyl]pyridin-3-yl}methyl)-L-leucinate]	331 to 3300
101 to 1000	331 to 3300	–	CC(C)(C)OC(=O)[C@@H](NCc1ccc(CCC(=O)NO)nc1)c1ccccc1 [Example 64, tert-Butyl (2S)-[({6-[3-(hydroxyamino)-3-oxopropyl]pyridin-3-yl}methyl)amino](phenyl)acetate]	331 to 3300
